In BindingDB's records for doi:10.7270/Q2T72FVT (University of Pittsburgh, 2007) one finds IC50 data, which are given here for six compounds.

pIC50: −log10 of the molar value. Some results are limits rather than exact numbers.

The experiment deals with Serine/threonine-protein kinase PLK1 (Homo sapiens, UniProt P53350). Put plainly: Plk1 polo box domain binding inhibitors, dose response, biochemical, fluorescence polarization (AID 877). (Polarisation of emitted light reports the rotation of a fluorescent probe.)
Sequence of Serine/threonine-protein kinase PLK1 (P53350 whole entry, the tested form may be a part): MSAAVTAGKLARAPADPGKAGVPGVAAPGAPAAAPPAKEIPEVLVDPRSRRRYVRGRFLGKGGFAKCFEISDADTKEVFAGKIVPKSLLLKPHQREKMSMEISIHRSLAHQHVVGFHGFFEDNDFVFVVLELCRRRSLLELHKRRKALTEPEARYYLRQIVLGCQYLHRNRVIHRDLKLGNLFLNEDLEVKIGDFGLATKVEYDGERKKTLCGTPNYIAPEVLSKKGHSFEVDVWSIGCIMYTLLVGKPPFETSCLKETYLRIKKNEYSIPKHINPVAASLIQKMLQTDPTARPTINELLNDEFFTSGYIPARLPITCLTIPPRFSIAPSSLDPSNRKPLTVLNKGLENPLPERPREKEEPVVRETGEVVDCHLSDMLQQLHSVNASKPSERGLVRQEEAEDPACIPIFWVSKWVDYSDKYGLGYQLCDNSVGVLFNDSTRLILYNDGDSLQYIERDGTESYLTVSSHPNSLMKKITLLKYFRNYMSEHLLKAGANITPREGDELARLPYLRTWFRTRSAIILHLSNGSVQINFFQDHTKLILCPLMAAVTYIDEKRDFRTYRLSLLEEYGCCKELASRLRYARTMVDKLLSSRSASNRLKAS

On to `COc1ccc(Nc2oc(-c3ccccc3Cl)nc2C#N)cc1` [2-(2-chlorophenyl)-5-(4-methoxyanilino)-1,3-oxazole-4-carbonitrile], for which the negative-log IC50 (pIC50) is less than 4.30. Turning to `O=C(CN1C(=O)COc2ccccc21)NCc1ccc(C(=O)O)cc1` [4-[[2-(3-oxidanylidene-1,4-benzoxazin-4-yl)ethanoylamino]methyl]benzoic acid], the pIC50 is less than 4.30.

For the compound `COc1ccc(N(C)C2=NS(=O)(=O)c3ccccc32)cc1` [(1,1-Dioxo-1H-1lambda*6*-benzo[d]isothiazol-3-yl)-(4-methoxy-phenyl)-methyl-amine], the negative-log IC50 (pIC50) was less than 4.30.

In turn, `O=C1Nc2ccc([N+](=O)[O-])cc2C1(O)N1CCCCC1` (stereo unspecified) [3-hydroxy-5-nitro-3-(1-piperidinyl)-1,3-dihydro-2H-indol-2-one] showed a pIC50 of less than 4.30. In the case of `Cn1c(=O)c(NCCO)c2c3c(cccc31)C(=O)c1ccccc1-2` [1-(2-Hydroxy-ethylamino)-3-methyl-3H-naphtho[1,2,3-de]quinoline-2,7-dione] it was 5.74; in that of `COC(=O)CNC(=O)C12CC3(C)CC(C)(CC(C)(C3)C1)C2` [2-[[oxo-(3,5,7-trimethyl-1-adamantyl)methyl]amino]acetic acid methyl ester], less than 4.30.

As usually defined, the pIC50 is the IC50 on a negative log10 scale, so that one unit is a factor of ten. Lower therefore signals a large IC50.
